According to patent US20260374818A1, “CATIONIC PEPTIDES WITH BROAD SPECTRUM ACTIVITY” (priority 2023, published 2026):
Read-outs that look alike come from different tables or passages of the source.

Columns and labels:
[1] = system: MRSA USA 300 LAC biofilms; experiment: Checkerboard biofilm synergy of AB103-D with antimicrobials, MRSA; assay type: cell-based, methicillin resistant Staphylococcus aureus; details: for Biofilm MBIC in 10% TSB, 0.1% glucose / Fold decrease AB103-D / Fold decrease Antibiotic: MRSA; for FIC: antibiotic used with AB103-D, MRSA USA 300 LAC, ≤0.5 synergy; for Fold decrease AB103-D: in combination of antibiotic with AB103-D; for Fold decrease Antibiotic: in combination with AB103-D
[2] = system: P. aeruginosa PAO1 planktonic cells; experiment: MIC of antibiotics against planktonic cells, PAO1; assay type: cell-based, Pseudomonas aeruginosa; details: for MIC against planktonic cells in BM2 medium: PAO1, BM2; for MIC against planktonic cells in MHB medium: PAO1, MHB; for MIC: Pseudomonas aeruginosa
[3] = system: MRSA USA 300 LAC planktonic cells; experiment: MIC of antibiotics against planktonic cells, MRSA; assay type: cell-based, methicillin resistant Staphylococcus aureus; details: for MIC in 10% TSB, 0.1% glucose / MIC in MHB medium: MRSA planktonic; for MIC: Staphylococcus aureus
[4] = system: P. aeruginosa PAO1 biofilms; experiment: Checkerboard biofilm synergy of AB103-D with antimicrobials, PAO1; assay type: cell-based, Pseudomonas aeruginosa; details: for FIC against biofilms: antibiotic used with AB103-D, ≤0.5 synergy; for Fold Decrease in concentration of AB103-D: in combination of antibiotic with AB103-D; for Fold Decrease in concentration of AB103-D / Fold Decrease in concentration of Antibiotic: PAO1; for Fold Decrease in concentration of Antibiotic: in combination with AB103-D
[5] = antibiotic alone, at least 70% reduction
[6] = antibiotic alone, PAO1, BM2, at least 70% reduction
[7] = PAO1, read-out: MIC against planktonic cells in BM2 medium
[8] = PAO1, read-out: MIC against planktonic cells in MHB medium
[9] = read-out: MIC in 10% TSB, 0.1% glucose

Row | SMILES | FIC [1] | Fold decrease AB103-D [1] | Fold decrease Antibiotic [1] | FIC against biofilms ([4]; PAO1, BM2) | Fold Decrease in concentration of AB103-D [4] | Fold Decrease in concentration of Antibiotic [4] | MIC [2, 7] [µg/mL] | MIC [2, 8] [µg/mL] | MIC [3, 9] [µg/mL] | MIC ([3]; read-out: MIC in MHB medium) [µg/mL] | other results
1 | O=[N+]([O-])[O-].[Ag+] [AgNO3] | 1.13 | No | 8-fold | 1 | 2-fold | 2-fold |  |  |  |  | Biofilm MBIC in 10% TSB, 0.1% glucose [1, 5]: 0.25; MIC against planktonic cells in BM2 medium [2]: 0.03 µg/mL; MIC against planktonic cells in MHB medium [2]: 0.125 µg/mL; MIC in 10% TSB, 0.1% glucose ([3]; 10% TSB, 0.1% glucose): 0.25; MIC in MHB medium [3]: 0.25 µg/mL; Antibiotic MBIC against biofilms [4, 6]: 0.03 µg/mL
2 | NCC[C@H](O)C(=O)N[C@@H]1C[C@H](N)[C@@H](O[C@H]2O[C@H](CN)[C@@H](O)[C@H](O)[C@H]2O)[C@H](O)[C@H]1O[C@H]1O[C@H](CO)[C@@H](O)[C@H](N)[C@H]1O [Amikacin] | 1 | 2-fold | 2-fold | 1.06 | No | 16-fold | 4 | 0.5 | 0.5 | 0.5 | 
3 | CC[C@H]1OC(=O)[C@H](C)[C@@H](O[C@H]2C[C@@](C)(OC)[C@@H](O)[C@H](C)O2)[C@H](C)[C@@H](O[C@@H]2O[C@H](C)C[C@H](N(C)C)[C@H]2O)[C@](C)(O)C[C@@H](C)CN(C)[C@H](C)[C@@H](O)[C@]1(C)O [Azithromycin] | 0.38 | 8-fold | 4-fold | 0.75 | 2-fold | 4-fold | 128 | 128 | 4 | 1 | 
4 | C[C@H]1[C@H](NC(=O)/C(=N\OC(C)(C)C(=O)O)c2csc(N)n2)C(=O)N1S(=O)(=O)O [Aztreonam] | 0.75 | 4-fold | 2-fold | 0.56 | 2-fold | 16-fold | 8 | 4 | > 128 | > 128 | 
5 | CO/N=C(\C(=O)N[C@@H]1C(=O)N2C(C(=O)[O-])=C(C[N+]3(C)CCCC3)CS[C@H]12)c1csc(N)n1 [Cefepime] | 0.38 | 8-fold | 4-fold | 0.56 | 2-fold | 16-fold | 0.5 | 1 | 8 | 8 | 
6 | CC(C)(O/N=C(\C(=O)N[C@@H]1C(=O)N2C(C(=O)[O-])=C(C[n+]3ccccc3)CS[C@H]12)c1csc(N)n1)C(=O)O [Ceftazidime] | 0.5 | 4-fold | 4-fold | 0.5 | 4-fold | 4-fold | 2 | 1 | 64 | 32 | 
7 | [H]/N=C(\N/C(=N/[H])NCCCCCCNC(=N)NC(=N)Nc1ccc(Cl)cc1)Nc1ccc(Cl)cc1 [Chlorhexidine] | 0.56 | 2-fold | 16-fold | 0.63 | 8-fold | 2-fold | 4 | 3.12 | 1 | 0.4 | 
8 | O=C(O)c1cn(C2CC2)c2cc(N3CCNCC3)c(F)cc2c1=O [Ciprofloxacin] | 0.5 |  |  | 0.53 |  |  |  |  |  |  | 
9 | CCC[C@@H]1C[C@@H](C(=O)N[C@@H]([C@H]2O[C@H](SC)[C@H](O)[C@@H](O)[C@H]2O)[C@H](C)Cl)N(C)C1 [Clindamycin] | 0.635 | 2-fold | 8-fold | 1 | 2-fold | 2-fold | > 256 | > 256 | 0.5 | 0.125 | 
10 | O=C(O)CN(CCN(CC(=O)O)CC(=O)O)CC(=O)O [EDTA] | 0.38 | 4-fold | 8-fold | 1.02 | No | 64-fold |  |  |  |  | Biofilm MBIC in 10% TSB, 0.1% glucose [1, 5]: 128; MIC against planktonic cells in BM2 medium [2]: >256 µg/mL; MIC against planktonic cells in MHB medium [2]: >256 µg/mL; MIC in 10% TSB, 0.1% glucose ([3]; 10% TSB, 0.1% glucose): 128; MIC in MHB medium [3]: 64 µg/mL; Antibiotic MBIC against biofilms [4, 6]: 128 µg/mL
11 | OO [H2O2] | 0.63 | 8-fold | 2-fold | 0.5 | 4-fold | 4-fold |  |  |  |  | Biofilm MBIC in 10% TSB, 0.1% glucose ([1]; in %): 0.0025%; MIC against planktonic cells in BM2 medium ([2]; in %): 0.08%; MIC against planktonic cells in MHB medium ([2]; in %): 0.01%; MIC in MHB medium ([3]; in %): 0.0018%; MIC in 10% TSB, 0.1% glucose ([3]; in %): 0.0025%; Antibiotic MBIC against biofilms ([4]; PAO1, BM2, in %): 0.08%
12 | C[C@H]1COc2c(N3CCN(C)CC3)c(F)cc3c(=O)c(C(=O)O)cn1c23 [Levofloxacin] | 0.75 | 4-fold | 2-fold | 0.63 | 2-fold | 8-fold |  | 0.25 | 8 | 4 | MIC against planktonic cells in BM2 medium [2]: 0.125 µg/mL; Antibiotic MBIC against biofilms [4, 6]: 0.125 µg/mL
13 | C[C@@H](O)[C@H]1C(=O)N2C(C(=O)O)=C(S[C@@H]3CN[C@H](C(=O)N(C)C)C3)[C@H](C)[C@H]12 [Meropenem] | 0.31 | 16-fold | 4-fold | 1.06 | 16-fold | No | 0.06 | 0.25 | 0.25 | 0.125 | 
14 | C/C(=C\C(=O)OCCCCCCCCC(=O)O)C[C@@H]1OC[C@H](C[C@@H]2O[C@H]2[C@@H](C)[C@H](C)O)[C@@H](O)[C@H]1O [Mupirocin] | 0.75 | 2-fold | 4-fold |  | No | No | > 128 | > 256 | 0.25 | 0.125 | 
15 | CCn1cc(C(=O)O)c(=O)c2cc(F)c(N3CCNCC3)cc21 [Norfloxacin] | 0.5 | 4-fold | 4-fold | 1.13 | No | 8-fold | 0.25 | 0.5 | 32 | 32 | 
16 | CCN1CCN(C(=O)N[C@@H](C(=O)N[C@@H]2C(=O)N3[C@@H]2SC(C)(C)[C@@H]3C(=O)O)c2ccccc2)C(=O)C1=O [Piperacillin] | 0.63 | 2-fold | 8-fold | 1 | 2-fold | 2-fold | 4 | 8 | 4 | 4 | 
17 | NC[C@H]1O[C@H](O[C@H]2[C@H](O)[C@@H](O[C@H]3O[C@H](CO)[C@@H](O)[C@H](N)[C@H]3O)[C@H](N)C[C@@H]2N)[C@H](N)C[C@@H]1O [Tobramycin] | 0.38 | 8-fold | 4-fold | 1 | 2-fold | 2-fold | 2 | 0.5 | 0.125 | 0.125 | 
18 | COc1cc(Cc2cnc(N)nc2N)cc(OC)c1OC [Trimethoprim] | 0.56 | 2-fold | 16-fold | 1 | 2-fold | 2-fold | 128 | 256 | 8 | 2 | 
19 | CN[C@H](CC(C)C)C(=O)N[C@H]1C(=O)N[C@@H](CC(N)=O)C(=O)N[C@H]2C(=O)N[C@H]3C(=O)N[C@H](C(=O)N[C@H](C(=O)O)c4cc(O)cc(O)c4-c4cc3ccc4O)[C@H](O)c3ccc(c(Cl)c3)Oc3cc2cc(c3O[C@@H]2O[C@H](CO)[C@@H](O)[C@H](O)[C@H]2O[C@H]2C[C@](C)(N)[C@H](O)[C@H](C)O2)Oc2ccc(cc2Cl)[C@H]1O [Vancomycin] | 0.38 | 8-fold | 4-fold | 0.56 | 2-fold | 16-fold | 256 | > 256 | 0.25 | 0.25 | 
